Experiments:
Format in all cases: cell-based, human
[1] = tested on: oral cancer (OC) patient-derived circulating tumor cells; assay: Ex vivo viability assay (CellTiter-Glo) on patient-derived CTC spheroids, oral cancer; conditions: for relative survival rate / anti-CTC effect compared with the 5-FU group: 6 days; for relative survival rate: vs untreated control cells; for drug sensitivity of OC patient organoids: Cisplatin and Carboplatin at the same concentration, Figure S3; for anti-CTC effect compared with the 5-FU group: 4 and 20 µg/mL
Method: (§1) Patients who were diagnosed with oral cancer (OC), hepatocellular carcinoma (HCC) and colorectal cancer (CRC) with stage III or IV were recruited and provided written informed consent to participate in this study. For patients enrolled, clinical profiles including initial cancer staging, medication information, and treatment responses were recorded. Peripheral blood (7.5 mL) was collected in vacated ethylenediaminetetraacetic acid (EDTA) tubes and peripheral blood mononuclear cells (PBMCs) were isolated by gradient gravity centrifugation using Ficoll-Paque. Blood was added to a LeucoSep tube filling with 15 mL of Ficoll-Paque Plus in the bottom of the frit and centrifuged to obtain the PBMC fraction. Then PBMC was resuspended in phosphate-buffered saline (PBS) containing 1% BSA, 2 mM EDTA where CTC was enriched by RosetteSep® CTC Enrichment Cocktail kit. Briefly, the PBMC pellet is incubated with antibodies at room temperature, followed by the addition of PBS containing 2% FBS to the diluted sample. The diluted sample was added on the top of Ficoll-Paque for another centrifugation, then enriched cells were obtained and suspended in DMEM/F12 medium containing EGF, bFGF, and B27 supplement. Cells were seeded onto a substrate of binary colloidal crystals (BCCs). The structure of BCCs has been reported for its ability to enhance the expansion of rare cancer cells. The medium was replaced in each well every four days. Tumor-derived CTC spheroids were checked by optical microscopy.
(§2) To test the anti-tumor activity of natural compounds, CTC spheroids were allowed to grow for four weeks then spheroids were collected to seed into other BCC plates and incubated for 16 h. Two chemotherapy drugs used as the positive control including 5-FU (30 µM), Cisplatin (14.4 µM), GKA201, GKB202 and GKC203 (4 µg/mL and 20 µg/mL) were added to cells and incubated for six days. Cell viability was determined by a CellTiter-Glo® Luminescent Cell Viability Assay (Promega Corporation, Madison, WI, US) where cells were incubated with a Cell-Titer Glo reagent for 10 min and the luminescence was read on a GloMax® Navigator Microplate Luminometer (Promega Corporation, Madison, WI, US). The relative cell viability was calculated as the percentage of cells treated with drugs or natural compounds compared with untreated control cells.

[2] = tested on: hepatocellular carcinoma (HCC) patient-derived circulating tumor cells; assay: Ex vivo viability assay (CellTiter-Glo) on patient-derived CTC spheroids, hepatocellular carcinoma; conditions: 6 days; for relative survival rate: vs untreated control cells; for anti-CTC effect compared with the 5-FU group: 4 and 20 µg/mL
Method: as §1, §2

[3] = tested on: colorectal cancer (CRC) patient-derived circulating tumor cells; assay: Ex vivo viability assay (CellTiter-Glo) on patient-derived CTC spheroids, colorectal cancer; conditions: 6 days; for relative survival rate: vs untreated control cells; for anti-CTC effect compared with the 5-FU group: 4 and 20 µg/mL
Method: as §1, §2

O=c1[nH]cc(F)c(=O)[nH]1 [5-FU]
relative survival rate ([1]; 5-FU 30 µM): 51 ± 13%
relative survival rate ([2]; 5-FU 30 µM): 43 ± 2%
relative survival rate ([3]; 5-FU 30 µM): 49 ± 13%

N.N.O=C([O-])C1(C(=O)[O-])CCC1.[Pt+2] [Carboplatin]
drug sensitivity of OC patient organoids [1]: resistant

N.N.[Cl][Pt][Cl] [Cisplatin]
relative survival rate ([1]; Cisplatin 14.4 µM): 21 ± 0.3%
drug sensitivity of OC patient organoids [1]: sensitive
relative survival rate ([2]; Cisplatin 14.4 µM): 28 ± 5.8%
relative survival rate ([3]; Cisplatin 14.4 µM): 49 ± 10%

CC(C)=CCOc1ccc(C2=C(CC(C)C)C(=O)OC2=O)cc1 [GKA201]
anti-CTC effect compared with the 5-FU group [1]: no significance
anti-CTC effect compared with the 5-FU group [2]: no significance
anti-CTC effect compared with the 5-FU group [3]: no significance

CC(C)=CCOc1ccc(C2=C(CC(C)C)C(=O)N(O)C2=O)cc1 [GKC203]
anti-CTC effect compared with the 5-FU group [1]: no significance
anti-CTC effect compared with the 5-FU group [2]: no significance
anti-CTC effect compared with the 5-FU group [3]: no significance
